Values after ≈ are worked out from the molar mass of the structure shown.
How the values were obtained:
[1] = system: Klebsiella pneumoniae; assay: Bactericidal activity against Klebsiella pneumoniae PTCC 1053 after 24 hr by NCCLS dilution tube method; type: functional; details: PTCC 1053, 24 h
[2] = system: Staphylococcus epidermidis; assay: Bactericidal activity against Staphylococcus epidermidis eye isolate after 24 hr by NCCLS dilution tube method; type: functional
[3] = system: Klebsiella pneumoniae; assay: Bactericidal activity against Klebsiella pneumoniae urine isolate after 24 hr by NCCLS dilution tube method; type: functional
[4] = Octanol-water partition coefficient, log D of the compound at pH 7.4 after 6 hr by shake flask method; type: physicochemical
[5] = system: Escherichia coli; assay: Bactericidal activity against Escherichia coli urine isolate after 24 hr by NCCLS dilution tube method; type: functional
[6] = system: Escherichia coli; assay: Bactericidal activity against Escherichia coli bronchi isolate after 24 hr by NCCLS dilution tube method; type: functional
[7] = system: Pseudomonas aeruginosa; assay: Bactericidal activity against Pseudomonas aeruginosa PTCC 1431 after 24 hr by NCCLS dilution tube method; type: functional; details: PTCC 1431, 24 h
[8] = system: Acinetobacter baumannii; assay: Bactericidal activity against multidrug-resistant Acinetobacter baumannii wound isolate after 24 hr by NCCLS dilution tube method; type: functional
[9] = system: Staphylococcus aureus; assay: Bactericidal activity against Staphylococcus aureus wound isolate after 24 hr by NCCLS dilution tube method; type: functional
[10] = system: Acinetobacter baumannii; assay: Bactericidal activity against multidrug-resistant Acinetobacter baumannii urine isolate after 24 hr by NCCLS dilution tube method; type: functional
[11] = system: Staphylococcus saprophyticus; assay: Bactericidal activity against Staphylococcus saprophyticus bronchi isolate after 24 hr by NCCLS dilution tube method; type: functional
[12] = system: Pseudomonas aeruginosa; assay: Bactericidal activity against Pseudomonas aeruginosa urine isolate after 24 hr by NCCLS dilution tube method; type: functional
[13] = system: Pseudomonas aeruginosa; assay: Bactericidal activity against Pseudomonas aeruginosa wound isolate after 24 hr by NCCLS dilution tube method; type: functional
[14] = system: Staphylococcus aureus; assay: Bactericidal activity against Staphylococcus aureus urine isolate after 24 hr by NCCLS dilution tube method; type: functional
[15] = system: Acinetobacter baumannii; assay: Bactericidal activity against multidrug-resistant Acinetobacter baumannii bronchi isolate after 24 hr by NCCLS dilution tube method; type: functional
[16] = system: Staphylococcus aureus; assay: Bactericidal activity against Staphylococcus aureus PTCC 1074 after 24 hr by NCCLS dilution tube method; type: functional; details: PTCC 1074, 24 h
[17] = system: Escherichia coli; assay: Bactericidal activity against Escherichia coli PTCC 1338 after 24 hr by NCCLS dilution tube method; type: functional; details: PTCC 1338, 24 h
[18] = system: Klebsiella pneumoniae; assay: Bactericidal activity against Klebsiella pneumoniae wound isolate after 24 hr by NCCLS dilution tube method; type: functional

logD at 6 h [4]	Structure (SMILES)	MBC [1]	MBC [2]	MBC [3]	MBC [5]	MBC [6]	MBC [7]	MBC [8]	MBC [9]	MBC [10]	MBC [11]	MBC [12]	MBC [13]	MBC [14]	MBC [15]	MBC [16]	MBC [17]	MBC [18]
1.09	CCCn1cnc2c3c(Cl)c4ccccc4nc3ccc21	25 µg/mL (≈ 84.5 µM)	–	–	–	–	> 100 µg/mL	–	–	–	–	–	–	–	–	6.25 µg/mL (≈ 21.1 µM)	25 µg/mL (≈ 84.5 µM)	–
1.48	CCCCCn1cnc2c3c(Cl)c4ccccc4nc3ccc21	25 µg/mL (≈ 77.2 µM)	–	–	–	–	> 100 µg/mL	–	–	–	–	–	–	–	–	12.5 µg/mL (≈ 38.6 µM)	50 µg/mL (≈ 154 µM)	–
–	CC1(C)S[C@@H]2[C@H](NC(=O)[C@H](N)c3ccc(O)cc3)C(=O)N2[C@H]1C(=O)O [AMOXICILLIN]	–	> 100 µg/mL	> 100 µg/mL	76.2 µg/mL (≈ 209 µM)	> 100 µg/mL	–	> 100 µg/mL	> 100 µg/mL	> 100 µg/mL	> 100 µg/mL	> 100 µg/mL	> 100 µg/mL	> 100 µg/mL	> 100 µg/mL	–	–	> 100 µg/mL
–	C=CC1=C(C(=O)O)N2C(=O)[C@@H](NC(=O)/C(=N\OCC(=O)O)c3csc(N)n3)[C@H]2SC1 [CEFIXIME]	–	28.7 µg/mL (≈ 63.3 µM)	20.8 µg/mL (≈ 45.9 µM)	12.1 µg/mL (≈ 26.7 µM)	23.1 µg/mL (≈ 50.9 µM)	–	82.8 µg/mL (≈ 183 µM)	33.1 µg/mL (≈ 73 µM)	75 µg/mL (≈ 165 µM)	24.5 µg/mL (≈ 54 µM)	20 µg/mL (≈ 44.1 µM)	96.9 µg/mL (≈ 214 µM)	45.2 µg/mL (≈ 99.7 µM)	87.5 µg/mL (≈ 193 µM)	–	–	44.6 µg/mL (≈ 98.4 µM)
–	CO/N=C(\C(=O)N[C@@H]1C(=O)N2C(C(=O)O)=C(COC(C)=O)CS[C@H]12)c1csc(N)n1 [CEFOTAXIME]	–	75 µg/mL (≈ 165 µM)	25 µg/mL (≈ 54.9 µM)	17.3 µg/mL (≈ 38 µM)	24.5 µg/mL (≈ 53.8 µM)	–	95.8 µg/mL (≈ 210 µM)	12.7 µg/mL (≈ 27.9 µM)	90.6 µg/mL (≈ 199 µM)	95 µg/mL (≈ 209 µM)	16.3 µg/mL (≈ 35.8 µM)	81.2 µg/mL (≈ 178 µM)	77.2 µg/mL (≈ 169 µM)	96.9 µg/mL (≈ 213 µM)	–	–	51.8 µg/mL (≈ 114 µM)
–	CC(C)(O/N=C(\C(=O)N[C@@H]1C(=O)N2C(C(=O)[O-])=C(C[n+]3ccccc3)CS[C@H]12)c1csc(N)n1)C(=O)O [CEFTAZIDIME]	–	73.7 µg/mL (≈ 135 µM)	22.9 µg/mL (≈ 41.9 µM)	14.4 µg/mL (≈ 26.3 µM)	45.4 µg/mL (≈ 83.1 µM)	–	91.7 µg/mL (≈ 168 µM)	63.5 µg/mL (≈ 116 µM)	93.7 µg/mL (≈ 171 µM)	82.4 µg/mL (≈ 151 µM)	43.8 µg/mL (≈ 80.1 µM)	90.6 µg/mL (≈ 166 µM)	80.2 µg/mL (≈ 147 µM)	90.6 µg/mL (≈ 166 µM)	–	–	92.8 µg/mL (≈ 170 µM)
–	NC[C@H]1O[C@H](O[C@H]2[C@H](O)[C@@H](O[C@H]3O[C@H](CO)[C@@H](O)[C@H](N)[C@H]3O)[C@H](N)C[C@@H]2N)[C@H](O)[C@@H](O)[C@@H]1O [KANAMYCIN]	–	25 µg/mL (≈ 51.6 µM)	12.5 µg/mL (≈ 25.8 µM)	84.4 µg/mL (≈ 174 µM)	85.5 µg/mL (≈ 176 µM)	–	> 100 µg/mL	17.9 µg/mL (≈ 36.9 µM)	> 100 µg/mL	40 µg/mL (≈ 82.6 µM)	47.9 µg/mL (≈ 98.9 µM)	48.4 µg/mL (≈ 99.9 µM)	55.1 µg/mL (≈ 114 µM)	> 100 µg/mL	–	–	16 µg/mL (≈ 33 µM)
–	CCn1cc(C(=O)O)c(=O)c2ccc(C)nc21 [NALIDIXIC ACID]	–	> 100 µg/mL	29.1 µg/mL (≈ 125 µM)	24 µg/mL (≈ 103 µM)	22.7 µg/mL (≈ 97.7 µM)	–	> 100 µg/mL	81.6 µg/mL (≈ 351 µM)	> 100 µg/mL	> 100 µg/mL	> 100 µg/mL	> 100 µg/mL	> 100 µg/mL	> 100 µg/mL	–	–	25.9 µg/mL (≈ 112 µM)
–	CCn1cc(C(=O)O)c(=O)c2cc(F)c(N3CCNCC3)cc21 [NORFLOXACIN]	–	75 µg/mL (≈ 235 µM)	11.5 µg/mL (≈ 36 µM)	7.3 µg/mL (≈ 22.9 µM)	12.2 µg/mL (≈ 38.2 µM)	–	41.7 µg/mL (≈ 131 µM)	9.8 µg/mL (≈ 30.7 µM)	62.5 µg/mL (≈ 196 µM)	50 µg/mL (≈ 157 µM)	13.7 µg/mL (≈ 42.9 µM)	25.8 µg/mL (≈ 80.8 µM)	11.5 µg/mL (≈ 36 µM)	37.5 µg/mL (≈ 117 µM)	–	–	50 µg/mL (≈ 157 µM)
–	CN(C)[C@@H]1C(O)=C(C(N)=O)C(=O)[C@@]2(O)C(O)=C3C(=O)c4c(O)cccc4[C@@](C)(O)[C@H]3C[C@@H]12 [TETRACYCLINE]	–	81.2 µg/mL (≈ 183 µM)	26 µg/mL (≈ 58.5 µM)	20.4 µg/mL (≈ 45.9 µM)	–	–	–	12.5 µg/mL (≈ 28.1 µM)	87.5 µg/mL (≈ 197 µM)	–	21.2 µg/mL (≈ 47.7 µM)	54.7 µg/mL (≈ 123 µM)	26.3 µg/mL (≈ 59.2 µM)	–	–	–	30.3 µg/mL (≈ 68.2 µM)
–	NC[C@H]1O[C@H](O[C@H]2[C@H](O)[C@@H](O[C@H]3O[C@H](CO)[C@@H](O)[C@H](N)[C@H]3O)[C@H](N)C[C@@H]2N)[C@H](N)C[C@@H]1O [TOBRAMYCIN]	–	50 µg/mL (≈ 107 µM)	28.1 µg/mL (≈ 60.1 µM)	64.3 µg/mL (≈ 138 µM)	74 µg/mL (≈ 158 µM)	–	83.3 µg/mL (≈ 178 µM)	17.3 µg/mL (≈ 37 µM)	78.1 µg/mL (≈ 167 µM)	25 µg/mL (≈ 53.5 µM)	13.7 µg/mL (≈ 29.3 µM)	26.5 µg/mL (≈ 56.7 µM)	11.8 µg/mL (≈ 25.2 µM)	68 µg/mL (≈ 145 µM)	–	–	24.1 µg/mL (≈ 51.5 µM)

Structure (SMILES)	logD at 6 h [4]	MBC [1]	MBC [2]	MBC [3]	MBC [5]	MBC [6]	MBC [7]	MBC [8]	MBC [9]	MBC [10]	MBC [11]	MBC [12]	MBC [13]	MBC [14]	MBC [15]	MBC [16]	MBC [17]	MBC [18]
Cn1cnc2c3c(Cl)c4ccccc4nc3ccc21	0.52	12.5 µg/mL (≈ 46.7 µM)	73.7 µg/mL (≈ 275 µM)	47.9 µg/mL (≈ 179 µM)	56.4 µg/mL (≈ 211 µM)	89.3 µg/mL (≈ 334 µM)	75 µg/mL (≈ 280 µM)	2 µg/mL (≈ 7.47 µM)	72.3 µg/mL (≈ 270 µM)	10.9 µg/mL (≈ 40.7 µM)	93.7 µg/mL (≈ 350 µM)	85 µg/mL (≈ 317 µM)	75 µg/mL (≈ 280 µM)	91 µg/mL (≈ 340 µM)	4.7 µg/mL (≈ 17.6 µM)	3.1 µg/mL (≈ 11.6 µM)	6.25 µg/mL (≈ 23.3 µM)	85.7 µg/mL (≈ 320 µM)
